# Laboratory results from the COVID Moonshot data (paper PMC11187573), “Identification of SARS-CoV-2 Mpro inhibitors through deep reinforcement learning for de novo drug design and computational chemistry approaches” (RSC Medicinal Chemistry, 2024).
# Assays:
# [1] = biological target: SARS-CoV-2 Main Protease (SARS-CoV-2) (UniProt P0DTD1)
# [2] = biological target: SARS-CoV-2 Main Protease (SARS-CoV-2) (UniProt P0DTD1); remark: listed apart in the source
SMILES,inhibition ([1]; 20.0 µM) [%],inhibition ([1]; 50.0 µM) [%],inhibition ([2]; 50.0 µM) [%],relative solubility at 20 uM,relative solubility at 100 uM,inhibition ([2]; 20.0 µM) [%],IC50 [1] [µM],IC50 [2] [nM]
COC(=O)C(c1ccccc1Cl)N1CCc2sccc2C1 (stereo unspecified),-3.49,4.1,0,0.97,0.79,,,
Cc1nc(-c2cccc(CNC(=O)Nc3cccc(CN4CCCC4=O)c3)c2)n[nH]1,2.12,2.95,0,0.98,0.98,,,
C=CC(=O)N1CCN(Cc2c[nH]c3ccc(C#N)cc23)CC1,-36.2,-27.1,0,0.97,0.92,0,,
NS(=O)(=O)c1ccc(N2CCC(c3ccco3)CC2)cc1,5.4,8.47,38.9,1,0.83,45.9,,
O=C(Nc1ccc(Oc2ncccn2)cc1)C(=O)N1CCN(Cc2cccs2)CC1,-21,-13.8,,1,1,0,,
CNS(=O)(=O)Cc1ccc2[nH]cc(CCN(C)C)c2c1,4.66,2.38,,1,1,0,,
Cc1nn(C(C)C)c(C)c1CC(=O)Nc1nncn1C1CC1,-5.19,-6.89,5.29,1,1,,,
COc1ccnc(NC(=O)Cc2ccc3ccccc3c2)c1,3.47,6.09,17.1,0.95,0.91,0,,
Cc1cc(C)cc(NC(=O)Cn2cncc2C)c1,-2.21,2.72,0,1,1,,,
O=C(CCl)N1CCN(S(=O)(=O)c2cccc(F)c2)CC1,97.3,104,96.8,1,1,96.6,4.55,2020
O=C(C1CCCN1C(=O)c1ccccc1)N1CCOCC1 (stereo unspecified),,-28,0,1,1,0,,
Cc1ccnc(C)c1NC(=O)C(C)c1ccc(F)c(F)c1 (stereo unspecified),-0.411,-2.87,0,1,1,,,
O=C(c1cc(=O)[nH]c2ccccc12)N1CCN(S(=O)(=O)c2ccccc2)CC1,16.1,40.7,3.07,0.98,0.97,,,
Cc1csc(C(=O)N/N=C/c2cccnc2)c1N,-0.86,-19.8,-6.32,0.99,0.93,,,
O=C(CCl)N1CCN(S(=O)(=O)c2cccs2)CC1,99.3,99.6,97.8,1,1,97.9,,557
O=C1/C(=C/c2ccc(O)cc2)c2ccccc2C(=O)N1Cc1ccc2c(c1)OCO2,6.21,-3.72,20.1,0.62,0.48,,,
C=CC(=O)N(c1cc(C(C)(C)C)n[nH]1)C(C(=O)Nc1c(C)cccc1CC)c1cccnc1 (stereo unspecified),4.05,4.71,,0.92,0.78,0,,
C=CC(=O)N(c1ccc2ncsc2c1)C(C(=O)Nc1c(C)cccc1CC)c1cccnc1 (stereo unspecified),7.67,10.7,,0.97,0.97,0,,
O=C(NCCNc1ccncc1)c1cccc(S(=O)(=O)Nc2ccccc2-c2ccccc2)c1,-20.4,-32.8,-3.32,0.95,0.94,,,
C=CC(=O)N(c1ccc(C(C)(C)CC)cc1)C(C(=O)Nc1ccc(Br)cc1)c1cccnc1 (stereo unspecified),8.32,18.4,,0.91,0.66,0,,
O=C(Nc1ccc([N+](=O)[O-])cc1Cl)c1cccc(Cl)c1,-10.8,-11.4,,0.76,0.57,1.31,,
Cc1ccncc1NC(=O)C(C)Cc1ccccc1 (stereo unspecified),-54.9,-128,0,1,1,,,
NS(=O)(=O)c1ccc(N2CCC(c3nc4ccccc4s3)CC2)cc1,-11.9,-12,,0.76,0.52,0,,
C=CC(=O)N(c1ccc(C(C)(C)C)cc1)C(C(=O)NC(C)C)c1cccnc1 (stereo unspecified),-1.73,0.416,0,1,1,0,,

SMILES,inhibition ([1]; 20.0 µM) [%],inhibition ([1]; 50.0 µM) [%],inhibition ([2]; 50.0 µM) [%],relative solubility at 20 uM,relative solubility at 100 uM,inhibition ([2]; 20.0 µM) [%],IC50 [1] [µM],IC50 [2] [nM]
Cc1ccncc1NC(=O)Cc1ccc2[nH]ccc2c1,2.86,-2.33,0,1,1,,,
CCS(=O)(=O)N1CCC(C(=O)Nc2cc(Cl)ccc2O)CC1,-1.05,-2.7,0,1,1,,,
O=C(Cc1c[nH]c2ncccc12)N1CCC(N2CCCS2(=O)=O)CC1,18.5,-1.92,,1,1.01,0,,
N#Cc1ccccc1S(=O)(=O)N1CCN(C(=O)c2cc(=O)[nH]c3ccc(F)cc23)CC1,14.7,29.9,29.9,0.99,0.92,,,
Cc1nnc(CC(=O)Nc2cccnc2)s1,-1.16,-0.0294,0,1,0.99,-1.82,,
Cc1nnc(NC(=O)Cc2cccc(Cl)c2)n1C,-6.05,0.874,-14,1,1,,,
Cc1ccc(NC(=O)Nc2cccnc2)s1,1.9,11.3,28.6,1,0.96,2.62,,
CC(C)(Cn1c(C2CCC(=O)N2)nnc1N1CCCC(C(N)=O)C1)c1ccccc1F (stereo unspecified),-2.8,6.51,29.4,1,0.99,,,
C=CC(=O)N(c1ccc(C(C)OC)cc1)C(C(=O)Nc1ccccc1Br)c1cccnc1 (stereo unspecified),3.04,9.73,,0.89,0.84,0,,
O=C(NCc1noc2ccccc12)c1ccccc1OCC1CC1,5.31,11.7,0,1,0.64,0,,
O=C(C1CCN(c2ccncc2)CC1)N1CCCCC1,,-18.6,-0.3,0.99,1,0,,
Cc1ccc(S(=O)(=O)N2CCN(C(=O)c3cc(=O)[nH]c4ccc(F)cc34)CC2)c(C)c1,6.24,20.6,11.7,0.98,0.84,,,
CC1CN(Cc2cccc(Cl)c2)CCN1C(=O)CCl (stereo unspecified),88.3,93.9,100,0.99,0.99,94.6,,2080
O=C(CCl)N1CCN(Cc2cccc(Cl)c2)C[C@@H]1Cc1ccccc1 (stereo in doubt),22.5,45.2,66.6,0.97,0.92,,,18900
Cn1cnnc1CNC(=O)Nc1cc(C(F)(F)F)c[nH]c1=O,7.84,14.8,3.33,1,1,,,
O=C(Cn1nnc2ccccc21)N(Cc1ccsc1)c1ccc(-c2ccccc2)cc1,30.4,39.1,36.1,0.64,0.5,,,
Cc1ccncc1NC(=O)[C@@]12COC[C@@H]1C2 (stereo in doubt),-0.441,-2.2,0,1,1,,,
Nc1nnnn1-c1cccc(C(=O)Nc2c(-c3cccnc3)nc3ccccn23)c1,-2.5,2.69,18.3,0.98,0.79,11,,
Cc1ccc(NC(=O)Cc2cc3cccnc3[nH]2)s1,23.7,8.28,7.42,1,0.96,,,
O=C(CCl)N1CCN(S(=O)(=O)c2c(F)cccc2F)CC1,98.7,104,99.2,0.96,0.88,98.6,,2620
O=C(NCCN1CCN(c2ccccc2)CC1)NCc1ccccn1,,12.5,0,0.99,0.99,0,,
C=CC(=O)N(c1ccc(C(C)(C)C)cc1)C(C(=O)NC(C)(C)C)c1cnc[nH]1 (stereo unspecified),-20.2,-23.6,0,0.99,0.89,0,,
NS(=O)(=O)c1ccc(C(=O)N2Cc3ccccc3C(c3ccccc3)C2)cc1 (stereo unspecified),0.809,8.23,,0.95,0.96,0,,
O=C(NCC(O)Cn1ccnn1)c1ccccc1OC1CCC1 (stereo unspecified),-1.11,2.04,0,1,1,0,,

SMILES,inhibition ([1]; 20.0 µM) [%],inhibition ([1]; 50.0 µM) [%],inhibition ([2]; 50.0 µM) [%],relative solubility at 20 uM,relative solubility at 100 uM,inhibition ([2]; 20.0 µM) [%],IC50 [1] [µM],IC50 [2] [nM]
C=CC(=O)N(c1ccc(C(C)(C)CC)cc1)C(C(=O)Nc1cccc(F)c1C)c1cccnc1 (stereo unspecified),16.3,31.8,,0.86,0.72,3.79,,
CCC(=O)O[C@@H](OP(=O)(CCCCc1ccccc1)CC(=O)N1C[C@H](C2CCCCC2)C[C@H]1C(=O)O)C(C)C (stereo in doubt),4.91,-0.253,,1,0.92,3.17,,
Cc1ccncc1NC(=O)C(C)c1cccc(Cl)c1 (stereo unspecified),58,78.7,,1,1,20.4,,13000
Cc1ccncc1NC(=O)CCc1ccccn1,-0.904,-28.6,11.4,1,1,,,
C=CC(=O)N1CCN(C(=O)c2cccc(Cl)c2)CC1,,5.55,0,0.99,0.99,0,,
C=CC(=O)N(c1ccc(C(C)(C)C)cc1)C(C(=O)NCCc1cccc(F)c1)c1cccnc1 (stereo unspecified),63.3,83.4,100,0.98,0.55,91.8,,3360
Cc1ccnc(C)c1NC(=O)NCc1cccc(N2CCOCC2)c1,2.7,-9.74,0,1,1,,,
C=CC(=O)N(c1ccc(C(C)(C)C)cc1)C(C(=O)NCCCC(=O)OCC)c1cccnc1 (stereo unspecified),6.16,30.9,14.6,0.99,0.96,0,,
C=CC(=O)Nc1cccc(OC2CC(=O)N2)c1 (stereo unspecified),5.39,2.19,2.88,1,1,,,
CNC(=O)OC1CCN(C(=O)c2ccccc2)CC1,,19.2,0,1,1,0,,
CCN1CCN(Cc2ccccc2CNC(=O)[C@@]2(C)CCN2C(=O)OC(C)(C)C)CC1 (stereo in doubt),-6.3,-0.697,13.2,1,1,,,
C=CC(=O)N(c1cc(C(C)(C)C)on1)C(C(=O)NCCc1cccc(F)c1)c1cccnc1 (stereo unspecified),16.7,31.3,100,0.98,0.97,,,10900
O=C(c1ccccc1)N1CCN(C(=O)C2CCOCC2)CC1,2.9,6.27,5.34,1,1,0.98,,
O=C(Nc1cnccc1CO)[C@@H]1COc2ccc(Cl)cc21 (stereo in doubt),46.1,73.1,58.6,1.01,1,,,18400
C=CC(=O)N(c1ccc(C(C)(C)C)cc1)C(C(=O)NC1CC(C(=O)OC)C1)c1cccnc1 (stereo unspecified),5.7,4.24,0,0.99,0.98,0,,
Cc1ccc(C)c(NC(=O)[C@H]2CNC(=O)C2)c1 (stereo in doubt),-14.9,-9.38,0,0.98,0.98,,,
C=CC(=O)N(c1ccc(C(C)(C)C)cc1)C(C(=O)NC(C)CC)c1cccnc1 (stereo unspecified),16.8,32.5,23.9,1,1,3.71,,
O=C(Cc1cc(Cl)c2c(c1)OCCO2)Nc1cnccc1-c1ccccc1,-45.1,-10.4,0,0.88,0.94,,,
C=CC(=O)N(c1ccc(S(F)(F)(F)(F)F)cc1)C(C(=O)Nc1ccc(OC)cc1)c1cccnc1 (stereo unspecified),15.7,30.6,,0.83,0.71,10.4,,
CN(CC1COc2ccccc2O1)C(=O)c1cc(=O)[nH]c2ccc(F)cc12 (stereo unspecified),-4.21,1.67,0,0.99,0.99,,,
CC(NC(=O)CCl)c1cc(Cl)cc(-c2ccc(S(N)(=O)=O)cc2)c1 (stereo unspecified),98.4,94.6,79,0.99,0.99,,,526
CN(C(=O)Cn1nnc2ccccc21)c1ccc(Oc2ccc(C(F)(F)F)cn2)cc1,30.2,59.4,19.2,0.98,0.87,,,
C=CC(=O)N(c1ccc(N(C)C)c(C)c1)C(C(=O)Nc1ccc(Br)cc1)c1cccnc1 (stereo unspecified),3.45,3.43,,0.84,0.74,0,,
CCOC(=O)c1nc(S(C)(=O)=O)ncc1Cl,96.9,98.5,100,0.99,0.99,,,1040
